Laboratory results reported in patent US11149047B2, “Aryl imidazoles for treatment of cancer” (Aptose Biosciences Inc., priority 2017, dated 2021).

Key:
[1] = test system: MV4-11, EOL-1, and KG-1 AML cells; assay: Flow cytometry for apoptosis (Annexin V / PI); type: cell-based; conditions: all cell lines, FIG. 10A
Procedure: (§1) Cells were treated as described above. To determine apoptosis, cells were stained with FITC-Annexin V and propidium iodide (PI; BD Pharmingen, catalog #556570) and then analyzed on BD Accuri C6 flow cytometer. To measure DNA synthesis and phases of cell cycle, treated cells were stained with 5-ethynyl-2′-deoxyuridine (Edu) Alexa Fluor 488 (Thermo Fisher Scientific, catalog #C10425) and PI (PI/RNase A staining solution, BD Biosciences, catalog #550825). The dead cells were excluded from analysis by using Live/Dead Fixable Far Red Dead Cell Stain Kit (Thermo Fisher Scientific, catalog #L34973). Staining was performed as per the manufacturers' instructions.
To investigate the mechanism by which COMPOUND I causes cell death, MV4-11, EOL-1, and KG-1 AML cells were treated with or without COMPOUND I and subjected to apoptotic marker detection by flowcytometry and Western blotting. Cells were stained with PI and Annexin V to distinguish between live (Annexin V and PI negative), early apoptotic (Annexin V positive and PI negative), late apoptotic (Annexin V and PI positive), and dead (Annexin V negative and PI positive) cells. […] COMPOUND I induced accumulation of c-PARP1 in a concentration- and time dependent manner that paralleled apoptosis induction as measured by Annexin V/PI staining (FIGS. 10B-C; FIG. 17B). […]

[2] = test system: AML cells (MV4-11, KG-1, EOL-1); assay: Flow cytometry cell-cycle analysis, time course; type: cell-based; conditions: IC50 concentration
Procedure: as §1
There was no perturbation of cell-cycle phase distribution in cells treated with vehicle alone. An increase in the fraction of cells in G0-G1 was detected as early as 2 hours, and this fraction continued to increase in a time-dependent manner throughout the 24-hour period of drug exposure (FIGS. 9D-F).

[3] = test system: protein levels in MV4-11 cells; assay: Reverse-phase protein array (RPPA) analysis; type: cell-based; conditions: 500 nmol/L, 6 h vs vehicle
Procedure: MV4-11 cells were treated as for RNA sequencing (RNA-seq) analysis and whole-cell extracts were prepared for Western blotting. Samples were processed at MD Anderson Cancer Center reverse-phase protein array (RPPA) core facility (details at https://www.mdanderson.org/research/research-resources/core-facilities/functional-proteomics-rppa-core/rppa-process.html). Protein expression levels were averaged for 3 replicates and heatmaps were drawn using GraphPad Prism 7.
To examine the effect of COMPOUND I on protein expression, MV4-11 cells were treated as above and analyzed by RPPA microarray to quantify >300 total and post-translationally modified proteins. […] Of note, there was an increase of cleaved caspase-7, which is indicative of apoptosis. GO analysis of the differentially expressed proteins was performed utilizing the Broad Molecular Signatures database. Significant GO terms included cell death and G1-S cell-cycle arrest pathways, a formal description of G0-G1 arrest, and consistent with the cell-cycle effects detected by flow cytometry and the RNA-seq analyses (FIG. 18C). An increase in E2F1, TP53, γH2AX, CHEK1 phos-S296, and CHEK2 phos-T68 supported the concept that DNA damage pathways are triggered by COMPOUND I treatment. In addition, increases in XBP1, HSPA5, and MAPK14 (p38) phos-T180/182 were observed, indicating ER or cellular stress ([…]; ref 15). DDR pathways can also signal through the MAPK pathway activating MAPK14 and MAPK8 (JNK), and cross-talk between the DDR pathway and ER stress is a well-established phenomenon although it is unclear which pathway represents the initiating event. A significant portion of the differentially expressed proteins and mRNAs are target genes of MYC oncoprotein, which is known to be an integral part of both cell-cycle and apoptotic pathway regulation.

[4] = Stability / complex formation in culture medium and on storage; type: physicochemical; conditions: COMPOUND I incubated with complete tissue culture medium
Procedure: Five molar equivalents of ferrous ion as FeSO4 in a concentrated water stock was added to COMPOUND I in ethanol which produced a deep red precipitate that was subsequently dissolved in DMSO and characterized by HPLC and mass spectrometry. Fe(COMPOUND I)3 was >95% pure and stable in the complete RPMI-1640 media for at least 5 days.

[5] = test system: KLF4 and CDKN1A expression in AML cell lines; assay: qRT-PCR of KLF4 and CDKN1A (p21) expression; type: cell-based
Procedure: Cells were treated with vehicle or COMPOUND I at various concentrations for 24 hours or at a single concentration for 1, 3, 6, 12, and 24 hours before harvesting. Cells were lysed by QiaShredder columns (QIAGEN, catalog #79656), total RNA was isolated using QIAGEN RNeasy Plus Mini Kit (catalog #74134), and cDNA was synthesized utilizing Transcriptor Universal cDNA master mix (Roche, catalog #05893151001) and then used for qRT-PCR analysis using FastStart essential DNA probes master mix (Roche, catalog #06402682001) and Roche LightCycler96. Primer probe pairs were purchased from IDT (Table 5). Expression was calculated as fold change over vehicle treated samples after normalizing to GAPDH […].
Previous studies reported upregulation of KLF4 and CDKN1A expression as a potential mechanism of APT0-COMPOUND I activity in tumors. […] The upregulation of CDKN1A mRNA increased with duration of exposure in all AML cell lines tested (FIGS. 15D and 15E). At later time points, CDKN1A expression began to decrease, likely due to increasing cell death. Induction of CDKN1A expression is typically associated with a subsequent G0-G1, cell-cycle arrest, which was observed following COMPOUND I treatment of solid tumor lines.

## Cc1[nH]c2ccc(F)cc2c1-c1nc2c3cccnc3c3ncccc3c2[nH]1 [COMPOUND I, 2-(5-fluoro-2-methyl-1H-indol-3-yl)-1H-imidazo[4,5-f][1,10]phenanthroline]
[1]
  apoptotic cells at 24 hours: concentration-dependent increase in apoptotic cells
[2]
  earliest time an increase in the fraction of cells in G0-G1 was detected: 2 h
[3]
  fold change ACC_pS79: 1.302 fold
  fold change ADAR1: 1.308 fold
  fold change Bad_pS112: 1.55 fold
  fold change BiP-GRP78: 1.29 fold
  fold change CD29: 1.291 fold
  fold change Caspase-3: 2.382 fold
  fold change Caspase-7-cleaved: 1.671 fold
  fold change Chk1: 1.433 fold
  fold change Chk2_pT68: 1.312 fold
  fold change Cyclin-B1: 0.5944 fold
  fold change Cyclin-E1: 1.361 fold
  fold change DM-Histone-H3: 2.008 fold
  fold change DM-K9-Histone-H3: 2.003 fold
  fold change E2F1: 1.423 fold
  fold change Ets-1: 0.6034 fold
  fold change H2AX_pS140: 4.196 fold
  fold change Hif-1-alpha: 1.482 fold
  fold change Histone-H3: 5.083 fold
  fold change N-Ras: 1.397 fold
  fold change NDRG1_pT346: 0.4566 fold
  fold change PAI-1: 1.257 fold
  fold change PAR: 2.707 fold
  fold change PLK1: 0.4946 fold
  fold change Pdcd-1L1: 1.262 fold
  fold change Rb_pS807_S811: 0.6486 fold
  fold change S6_pS240_S244: 0.6467 fold
  fold change Syk: 1.433 fold
  fold change Ubq-Histone-H2B: 1.375 fold
  fold change XBP-1: 1.369 fold
  fold change p38_pT180_Y182: 2.022 fold
  fold change p53: 1.288 fold
[4]
  extracellular Fe(COMPOUND I)3 formation: no extracellular Fe(COMPOUND I)3 was detected
[5]; 24 hr treatment, FIG. 15A
  AML cell lines with upregulated KLF4 expression: 4 of 6
[5]; FIGS. 15B and 15C
  CDKN1A (p21) expression: induced in all AML cell lines in a concentration-dependent manner
